Assays:
mAb 735 = test: Competitive ELISA of biotinylated peptide-BSA conjugates on anti-PSA mAb; format: binding; details: for Binding of peptide to mAb 735 in competitive ELISA (percentage of binding): biotinylated peptide-BSA conjugate
Text: • mAb 735 and 30H12 • MaxiSorp™ plates (NUNC) for coating the antibody: ELISA plates • microtiter plates (NUNC) for peptide dilution: dilution plates • Biotinylated peptide-BSA conjugates prepared as above described • Extravidin alkaline phosphatase-avidin conjugate (SIGMA E2636) • p-nitrophenyl-phosphatase alkaline substrate (SIGMA 104-105) 2.1.2) Buffers • PBS pH 7.4 • Blocking solution: 0.5% BSA in PBS • TBS • TBST: TBS containing 0.05% Tween 20 • Extravidin alkaline phosphatase-avidin conjugate solution: 1/5000 in TBST • Alkaline phosphatase substrate solution; 1 tablet in 5 ml 50 mM NaHCO3, 1 mM MgCl2 solution, […]) Method
(§1) Maxisorp™ plate wells were coated with 100 μl mAb solution (25 μg/ml) for 2 h at room temperature. The control wells of the ELISA plates were only coated with the blocking solution. In parallel, the peptide-BSA conjugate dilution plates were blocked with 200 μl blocking solution for 2 h. The antibody coated wells and the control wells were blocked with 200 μl blocking solution for 1 h. In parallel the peptide-BSA conjugate dilution plates were washed 6 times with TBST and 120 μl TBST was added to the wells. An appropriate volume of peptide-BSA conjugate solution was added to the first well and the volume adjusted to 140 μl with TBST. The peptide-BSA conjugate in well one was diluted in the ratio 1/7 by taking 20 μl out of the first well and transferring into the second also to achieve the total volume of 140 μl. This was repeated for the remaining wells. The peptide-BSA conjugate dilutions for the control wells were done the same way. The blocked ELISA plates were washed 6 times with TBST and the peptide-BSA conjugate dilutions or 100 μl of the mixed competitor solution was added to the wells. After incubation for 1 h, the wells were washed 10 times with TBST and 100 μl of the alkaline phosphatase substrate solution was added to the wells. The plates were read out after 10 to 60 min using a microplate reader at 405 nm.
(§2) The specificity of peptide p21 (SEQ ID NO: 1) was investigated in a competition ELISA using biotinylated p21-BSA conjugate and a randomized variant of p21 (p22) conjugate as a control. The results presented in Tables X and XI are expressed as percentage of binding by comparison with peptide p21 at the highest concentration (9.45 10^-5 M) which corresponds to 100% binding.

BSA = BSA (Bos taurus, UniProt P02769); test: Peptide-BSA conjugate ELISA, control wells coated only with blocking solution (BSA); format: binding; details: biotinylated peptide-BSA conjugate, BSA-blocked wells, no mAb
Sequence of BSA (P02769 25-607): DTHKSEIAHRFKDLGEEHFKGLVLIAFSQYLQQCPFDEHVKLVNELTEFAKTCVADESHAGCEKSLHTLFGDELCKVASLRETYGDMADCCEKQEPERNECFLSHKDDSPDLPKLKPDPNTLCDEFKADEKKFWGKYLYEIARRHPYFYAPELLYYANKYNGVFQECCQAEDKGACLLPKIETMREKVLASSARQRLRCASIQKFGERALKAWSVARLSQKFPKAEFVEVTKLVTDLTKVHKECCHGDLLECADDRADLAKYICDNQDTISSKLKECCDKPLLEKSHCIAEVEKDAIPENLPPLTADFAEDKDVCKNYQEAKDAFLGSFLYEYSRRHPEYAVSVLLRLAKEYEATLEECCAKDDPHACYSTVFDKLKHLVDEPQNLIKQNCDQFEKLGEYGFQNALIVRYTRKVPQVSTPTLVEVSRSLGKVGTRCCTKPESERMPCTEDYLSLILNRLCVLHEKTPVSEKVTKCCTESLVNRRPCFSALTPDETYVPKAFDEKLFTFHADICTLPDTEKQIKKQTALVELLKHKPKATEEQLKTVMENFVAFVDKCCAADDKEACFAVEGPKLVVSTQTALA
Text: • mAb 735 and 30H12 • MaxiSorp™ plates (NUNC) for coating the antibody: ELISA plates • microtiter plates (NUNC) for peptide dilution: dilution plates • Biotinylated peptide-BSA conjugates prepared as above described • Extravidin alkaline phosphatase-avidin conjugate (SIGMA E2636) • p-nitrophenyl-phosphatase alkaline substrate (SIGMA 104-105) 2.1.2) Buffers • PBS pH 7.4 • Blocking solution: 0.5% BSA in PBS • TBS • TBST: TBS containing 0.05% Tween 20 • Extravidin alkaline phosphatase-avidin conjugate solution: 1/5000 in TBST • Alkaline phosphatase substrate solution; 1 tablet in 5 ml 50 mM NaHCO3, 1 mM MgCl2 solution, pH 9.6. • mixed competitor solution: 1 mM colominic acid with a peptide-BSA conjugate gradient in TBST 2.1.3) Method
as §1, §2

[1] = peptide-BSA conjugate, in words

PDHIFVFSPDLP [p22, reference compound] was tested, and the “Binding of peptide to mAb 735 in competitive ELISA (percentage of binding)” value (mAb 735; peptide 1.62 10^−9 M, + chondroitin sulfate C) was 2 ± 0%, the “Binding of peptide to mAb 735 in competitive ELISA (percentage of binding)” value (mAb 735; peptide 1.62 10^−9 M, + colominic acid 1 mM) was 0 ± 0% and the “Binding of peptide to mAb 735 in competitive ELISA (percentage of binding)” value (mAb 735; peptide 1.62 10^−9 M, no competitor) was 0 ± 0%. For the same sequence, the “Binding of peptide to mAb 735 in competitive ELISA (percentage of binding)” value (mAb 735; peptide 1.67 10^−5 M, + chondroitin sulfate C) was 8 ± 1%, the “Binding of peptide to mAb 735 in competitive ELISA (percentage of binding)” value (mAb 735; peptide 1.67 10^−5 M, + colominic acid 1 mM) was 5 ± 0% and the “Binding of peptide to mAb 735 in competitive ELISA (percentage of binding)” value (mAb 735; peptide 1.67 10^−5 M, no competitor) was 9 ± 0%. For the same sequence, the “Binding of peptide to mAb 735 in competitive ELISA (percentage of binding)” value (mAb 735; peptide 2.86 10^−9 M, + chondroitin sulfate C) was 2 ± 0%, the “Binding of peptide to mAb 735 in competitive ELISA (percentage of binding)” value (mAb 735; peptide 2.86 10^−9 M, + colominic acid 1 mM) was 0 ± 0% and the “Binding of peptide to mAb 735 in competitive ELISA (percentage of binding)” value (mAb 735; peptide 2.86 10^−9 M, no competitor) was 0 ± 0%. The “Binding of peptide to mAb 735 in competitive ELISA (percentage of binding)” value (mAb 735; peptide 2.94 10^−6 M, + chondroitin sulfate C) was 3 ± 1%, the “Binding of peptide to mAb 735 in competitive ELISA (percentage of binding)” value (mAb 735; peptide 2.94 10^−6 M, + colominic acid 1 mM) was 0 ± 0% and the “Binding of peptide to mAb 735 in competitive ELISA (percentage of binding)” value (mAb 735; peptide 2.94 10^−6 M, no competitor) was 1 ± 0%. For the same sequence, the “Binding of peptide to mAb 735 in competitive ELISA (percentage of binding)” value (mAb 735; peptide 5.04 10^−10 M, + chondroitin sulfate C) was 2 ± 0%, the “Binding of peptide to mAb 735 in competitive ELISA (percentage of binding)” value (mAb 735; peptide 5.04 10^−10 M, + colominic acid 1 mM) was 0 ± 0% and the “Binding of peptide to mAb 735 in competitive ELISA (percentage of binding)” value (mAb 735; peptide 5.04 10^−10 M, no competitor) was 0 ± 0%. For the same sequence, the “Binding of peptide to mAb 735 in competitive ELISA (percentage of binding)” value (mAb 735; peptide 5.20 10^−7 M, + chondroitin sulfate C) was 2 ± 0%, the “Binding of peptide to mAb 735 in competitive ELISA (percentage of binding)” value (mAb 735; peptide 5.20 10^−7 M, + colominic acid 1 mM) was 0 ± 0% and the “Binding of peptide to mAb 735 in competitive ELISA (percentage of binding)” value (mAb 735; peptide 5.20 10^−7 M, no competitor) was 0 ± 0%. For the same sequence, the “Binding of peptide to mAb 735 in competitive ELISA (percentage of binding)” value (mAb 735; peptide 8.89 10^−11 M, + chondroitin sulfate C) was 2 ± 0%, the “Binding of peptide to mAb 735 in competitive ELISA (percentage of binding)” value (mAb 735; peptide 8.89 10^−11 M, + colominic acid 1 mM) was 0 ± 0% and the “Binding of peptide to mAb 735 in competitive ELISA (percentage of binding)” value (mAb 735; peptide 8.89 10^−11 M, no competitor) was 0 ± 0%. For the same sequence, the “Binding of peptide to mAb 735 in competitive ELISA (percentage of binding)” value (mAb 735; peptide 9.27 10^−8 M, + chondroitin sulfate C) was 2 ± 1%, the “Binding of peptide to mAb 735 in competitive ELISA (percentage of binding)” value (mAb 735; peptide 9.27 10^−8 M, + colominic acid 1 mM) was 0 ± 0% and the “Binding of peptide to mAb 735 in competitive ELISA (percentage of binding)” value (mAb 735; peptide 9.27 10^−8 M, no competitor) was 0 ± 0%. The “Binding of peptide to mAb 735 in competitive ELISA (percentage of binding)” value (mAb 735; peptide 9.45 10^−5 M, + chondroitin sulfate C) was 29 ± 0%, the “Binding of peptide to mAb 735 in competitive ELISA (percentage of binding)” value (mAb 735; peptide 9.45 10^−5 M, + colominic acid 1 mM) was 27 ± 0% and the “Binding of peptide to mAb 735 in competitive ELISA (percentage of binding)” value (mAb 735; peptide 9.45 10^−5 M, no competitor) was 32 ± 1%. The “Binding of peptide to mAb 735” value (mAb 735; [1]) was “no binding”, the “Effect of colominic acid or chondroitin sulfate C on binding to mAb 735” value (mAb 735; [1]) was “no differences were observed” and the “Binding of peptide to BSA control wells (percentage of binding)” value (BSA; peptide 1.62 10^−9 M) was 0 ± 0%. For the same sequence, the “Binding of peptide to BSA control wells (percentage of binding)” value (BSA; peptide 1.67 10^−5 M) was 1 ± 1%, the “Binding of peptide to BSA control wells (percentage of binding)” value (BSA; peptide 2.86 10^−9 M) was 0 ± 0% and the “Binding of peptide to BSA control wells (percentage of binding)” value (BSA; peptide 2.94 10^−6 M) was 0 ± 0%. The “Binding of peptide to BSA control wells (percentage of binding)” value (BSA; peptide 5.04 10^−10 M) was 0 ± 0%, the “Binding of peptide to BSA control wells (percentage of binding)” value (BSA; peptide 5.20 10^−7 M) was 0 ± 0% and the “Binding of peptide to BSA control wells (percentage of binding)” value (BSA; peptide 8.89 10^−11 M) was 0 ± 0%. The “Binding of peptide to BSA control wells (percentage of binding)” value (BSA; peptide 9.27 10^−8 M) was 0 ± 0% and the “Binding of peptide to BSA control wells (percentage of binding)” value (BSA; peptide 9.45 10^−5 M) was 3 ± 1%.

Reference: patent US7417025B2, “Use of poly-α2,8-sialic acid mimetic peptides to modulate NCAM functions” (Centre National de la Recherche Scientifique, priority 2002, dated 2008)
